Measurements reported in ChEMBL document CHEMBL6120971 (J Med Chem, 2024).
Activity calls are given as the source filed them. The rule behind the calls is not given here.

Columns and labels:
[1] = system: PC-9; test: Inhibition of c-MET/Akt signaling pathway activation in human PC-9 cells at 3.125 to 50 nM incubated for 24 hrs by Western blot analysis; assay type: cell-based; settings: dose 3.125-50 nM
[2] = system: MKN-45; test: Downregulation of SLC7A1 protein level in human MKN-45 cells at 100 nM incubated for 24 hrs by MS-based quantitative proteomics analysis; assay type: functional, cell-based
[3] = target: T1, Protein cereblon/Hepatocyte growth factor receptor (Homo sapiens, UniProt P08581+Q96SW2); test: PROTAC activity at CRBN/c-MET in human PC-3 cells assessed as induction of c-MET degradation at 12.5 to 100 nM incubated for 24 hrs by Western blot analysis; assay type: cell-based; settings: dose 12.5-100 nM
Target sequence in this assay (P08581 25-1390 limits assumed): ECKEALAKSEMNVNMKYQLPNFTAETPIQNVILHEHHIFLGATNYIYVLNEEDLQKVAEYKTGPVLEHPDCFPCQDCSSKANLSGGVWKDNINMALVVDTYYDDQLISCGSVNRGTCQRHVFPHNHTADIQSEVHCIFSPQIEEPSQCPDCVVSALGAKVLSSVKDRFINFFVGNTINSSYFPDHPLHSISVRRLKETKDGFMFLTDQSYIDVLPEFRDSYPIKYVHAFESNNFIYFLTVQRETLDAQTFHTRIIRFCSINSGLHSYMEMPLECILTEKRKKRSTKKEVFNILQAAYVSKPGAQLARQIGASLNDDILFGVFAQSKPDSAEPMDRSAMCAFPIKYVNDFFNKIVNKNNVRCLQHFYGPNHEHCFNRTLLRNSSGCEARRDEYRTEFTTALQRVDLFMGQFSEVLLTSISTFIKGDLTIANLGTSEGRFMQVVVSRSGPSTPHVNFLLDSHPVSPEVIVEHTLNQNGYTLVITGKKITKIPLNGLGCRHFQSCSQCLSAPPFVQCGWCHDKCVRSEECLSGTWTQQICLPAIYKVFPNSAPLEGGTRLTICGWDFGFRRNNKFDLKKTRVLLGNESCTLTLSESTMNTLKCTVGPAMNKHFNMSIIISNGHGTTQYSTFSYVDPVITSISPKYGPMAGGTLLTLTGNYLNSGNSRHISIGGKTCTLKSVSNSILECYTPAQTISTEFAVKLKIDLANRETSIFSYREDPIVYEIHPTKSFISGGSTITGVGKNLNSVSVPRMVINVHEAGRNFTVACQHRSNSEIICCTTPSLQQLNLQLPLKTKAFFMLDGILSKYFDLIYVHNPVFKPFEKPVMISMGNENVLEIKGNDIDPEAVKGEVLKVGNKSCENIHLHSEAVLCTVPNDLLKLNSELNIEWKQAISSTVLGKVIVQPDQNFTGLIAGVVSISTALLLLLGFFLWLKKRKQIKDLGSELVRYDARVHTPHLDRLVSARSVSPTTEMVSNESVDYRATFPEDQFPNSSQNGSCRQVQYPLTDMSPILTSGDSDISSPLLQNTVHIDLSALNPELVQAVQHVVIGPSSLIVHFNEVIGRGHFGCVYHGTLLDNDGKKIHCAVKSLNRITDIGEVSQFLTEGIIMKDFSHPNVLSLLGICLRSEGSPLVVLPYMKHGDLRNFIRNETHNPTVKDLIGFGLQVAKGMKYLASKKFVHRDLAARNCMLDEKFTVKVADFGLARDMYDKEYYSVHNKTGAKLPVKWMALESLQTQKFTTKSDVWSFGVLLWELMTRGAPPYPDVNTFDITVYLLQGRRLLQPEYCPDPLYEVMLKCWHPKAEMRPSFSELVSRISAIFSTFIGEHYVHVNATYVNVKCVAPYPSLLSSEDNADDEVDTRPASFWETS
Target sequence in this assay (Q96SW2 whole entry partner): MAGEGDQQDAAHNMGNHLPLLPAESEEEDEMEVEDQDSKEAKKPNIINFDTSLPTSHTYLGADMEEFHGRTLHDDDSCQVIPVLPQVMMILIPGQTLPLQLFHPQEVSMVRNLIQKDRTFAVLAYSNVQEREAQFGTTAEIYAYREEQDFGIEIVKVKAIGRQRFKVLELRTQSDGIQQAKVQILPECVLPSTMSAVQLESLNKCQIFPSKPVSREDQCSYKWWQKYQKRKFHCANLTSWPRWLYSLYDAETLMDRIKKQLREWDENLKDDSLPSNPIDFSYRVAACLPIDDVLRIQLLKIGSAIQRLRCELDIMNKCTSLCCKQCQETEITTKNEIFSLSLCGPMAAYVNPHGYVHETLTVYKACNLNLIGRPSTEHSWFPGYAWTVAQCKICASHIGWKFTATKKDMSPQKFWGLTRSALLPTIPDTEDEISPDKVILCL

[4] = system: PC-9; test: Induction of apoptosis in human PC-9 cells at 3.125 to 50 nM incubated for 48 hrs by Annexin V-FITC/PI staining based flow cytometric analysis; assay type: functional, cell-based; settings: dose 3.125-50 nM
[5] = system: MKN-45; test: Upregulation of HSPG2 protein level in human MKN-45 cells at 100 nM incubated for 24 hrs by MS-based quantitative proteomics analysis; assay type: functional, cell-based
[6] = system: MKN-45; test: Antiproliferative activity against human MKN-45 cells incubated for 72 hrs by CCK8 assay; assay type: functional, cell-based; settings: MKN-45, 72 h
[7] = Tmax in male Sprague-Dawley rat at 10 mg/kg, iv measured after 24 hrs by LC-MS/MS analysis; assay type: ADME, organism-based; settings: in vivo
[8] = system: MKN-45; test: Downregulation of CHCHD2 protein level in human MKN-45 cells at 100 nM incubated for 24 hrs by MS-based quantitative proteomics analysis; assay type: functional, cell-based
[9] = system: Mus musculus; test: Downregulation of c-MET protein level in BALB/c nude mouse liver xenografted with human MKN-45 cells at 10 mg/kg, po measured after 48 hrs by Western blot analysis; assay type: functional, organism-based
[10] = MRT (0 to infinity) in male Sprague-Dawley rat at 10 mg/kg, iv measured after 24 hrs by LC-MS/MS analysis; assay type: ADME, organism-based; settings: in vivo
[11] = Half-life in male Sprague-Dawley rat at 10 mg/kg, po measured after 24 hrs by LC-MS/MS analysis; assay type: ADME, organism-based; settings: in vivo
[12] = system: MKN-45; test: Downregulation of ULK2B protein level in human MKN-45 cells at 100 nM incubated for 24 hrs by MS-based quantitative proteomics analysis; assay type: functional, cell-based
[13] = Tmax in male Sprague-Dawley rat at 10 mg/kg, po measured after 24 hrs by LC-MS/MS analysis; assay type: ADME, organism-based; settings: in vivo
[14] = target: T1, Protein cereblon/Hepatocyte growth factor receptor; test: PROTAC activity at CRBN/c-MET in human MKN-45 cells assessed as induction of c-MET degradation incubated for 24 hrs by Western blot analysis; assay type: cell-based
Target sequence in this assay (P08581 whole entry): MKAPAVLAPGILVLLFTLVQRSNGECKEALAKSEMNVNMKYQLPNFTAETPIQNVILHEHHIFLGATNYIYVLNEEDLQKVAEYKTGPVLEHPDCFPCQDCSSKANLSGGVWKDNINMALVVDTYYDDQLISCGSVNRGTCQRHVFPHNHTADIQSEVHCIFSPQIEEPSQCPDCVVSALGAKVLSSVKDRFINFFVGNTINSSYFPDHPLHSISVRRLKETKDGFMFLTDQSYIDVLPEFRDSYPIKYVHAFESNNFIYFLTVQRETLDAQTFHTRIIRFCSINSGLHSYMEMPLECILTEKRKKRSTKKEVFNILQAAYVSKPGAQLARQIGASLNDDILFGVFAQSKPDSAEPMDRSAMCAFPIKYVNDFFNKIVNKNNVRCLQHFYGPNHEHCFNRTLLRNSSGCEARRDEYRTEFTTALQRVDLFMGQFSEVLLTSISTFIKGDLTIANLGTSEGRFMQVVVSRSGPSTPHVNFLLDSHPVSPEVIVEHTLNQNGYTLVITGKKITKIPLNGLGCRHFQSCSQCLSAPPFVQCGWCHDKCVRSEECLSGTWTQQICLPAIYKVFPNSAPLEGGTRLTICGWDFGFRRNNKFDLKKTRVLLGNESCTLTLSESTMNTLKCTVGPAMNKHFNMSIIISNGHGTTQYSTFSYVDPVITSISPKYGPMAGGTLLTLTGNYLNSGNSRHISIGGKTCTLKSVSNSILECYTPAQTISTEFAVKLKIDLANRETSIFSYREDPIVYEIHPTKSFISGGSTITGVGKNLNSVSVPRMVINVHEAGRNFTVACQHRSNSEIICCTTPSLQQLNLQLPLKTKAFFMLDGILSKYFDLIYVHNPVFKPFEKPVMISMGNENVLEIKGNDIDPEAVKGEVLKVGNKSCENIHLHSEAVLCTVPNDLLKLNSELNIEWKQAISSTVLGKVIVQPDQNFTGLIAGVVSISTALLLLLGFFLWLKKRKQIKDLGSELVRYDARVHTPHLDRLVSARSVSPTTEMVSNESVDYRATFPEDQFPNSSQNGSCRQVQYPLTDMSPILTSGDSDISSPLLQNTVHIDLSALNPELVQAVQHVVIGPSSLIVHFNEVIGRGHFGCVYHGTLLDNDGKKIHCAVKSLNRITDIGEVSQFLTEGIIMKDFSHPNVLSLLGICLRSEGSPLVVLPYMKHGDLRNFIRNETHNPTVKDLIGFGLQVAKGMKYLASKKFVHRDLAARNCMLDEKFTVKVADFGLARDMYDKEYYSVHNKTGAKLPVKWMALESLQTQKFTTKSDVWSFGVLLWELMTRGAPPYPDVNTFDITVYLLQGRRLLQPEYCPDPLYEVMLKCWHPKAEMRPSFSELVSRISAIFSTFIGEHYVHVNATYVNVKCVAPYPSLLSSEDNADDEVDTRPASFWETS
Target sequence in this assay (Q96SW2 whole entry): as the sequence (Q96SW2 whole entry partner) above

[15] = AUC (0 to infinity) in male Sprague-Dawley rat at 10 mg/kg, iv measured after 24 hrs by LC-MS/MS analysis; assay type: ADME, organism-based; settings: in vivo
[16] = Oral bioavailability in male Sprague-Dawley rat at 10 mg/kg measured after 24 hrs by LC-MS/MS analysis; assay type: ADME, organism-based; settings: in vivo
[17] = Toxicity in BALB/c nude mouse xenografted with human MKN-45 cells assessed as effect on liver morphology at 10 to 40 mg/kg, po administered once daily for 21 days by H and E staining based analysis; assay type: organism-based; settings: in vivo, 504 h, dose 10-40 mg/kg, time 21 day
[18] = system: Mus musculus; test: Downregulation of c-MET protein level in BALB/c nude mouse stomach xenografted with human MKN-45 cells at 10 mg/kg, po measured after 48 hrs by Western blot analysis; assay type: functional, organism-based
[19] = Cmax in male Sprague-Dawley rat at 10 mg/kg, po measured after 24 hrs by LC-MS/MS analysis; assay type: ADME, organism-based; settings: in vivo
[20] = target: T1, Protein cereblon/Hepatocyte growth factor receptor; test: PROTAC activity at CRBN/c-MET in human MKN-45 cells assessed as induction of c-MET degradation at 100 to 1000 nM incubated for 24 hrs by Western blot analysis relative to control; assay type: cell-based; settings: dose 100-1000 nM
Target sequence in this assay (P08581 25-1390 limits assumed): as the sequence (P08581 25-1390 limits assumed) above
Target sequence in this assay (Q96SW2 whole entry partner): as the sequence (Q96SW2 whole entry partner) above

[21] = target: Protein cereblon/Importin subunit alpha-1 (Homo sapiens) (UniProt P52292+Q96SW2); test: PROTAC activity at CRBN/KPNA2 in human MKN-45 cells assessed as induction of c-MET degradation at 6.25 to 100 nM incubated for 24 hrs by Western blot analysis; assay type: cell-based; settings: dose 6.25-100 nM
[22] = Toxicity in BALB/c nude mouse xenografted with human MKN-45 cells assessed as effect on spleen morphology at 10 to 40 mg/kg, po administered once daily for 21 days by H and E staining based analysis; assay type: organism-based; settings: in vivo, 504 h, dose 10-40 mg/kg, time 21 day
[23] = system: MKN-45; test: Antitumor activity against human MKN-45 cells xenografted in BALB/c nude mouse assessed as reduction in tumor growth at 10 mg/kg, po administered once daily for 21 days; assay type: functional, organism-based; settings: time 21.0 day
[24] = MRT (0 to infinity) in male Sprague-Dawley rat at 10 mg/kg, po measured after 24 hrs by LC-MS/MS analysis; assay type: ADME, organism-based; settings: in vivo
[25] = target: T1, Protein cereblon/Hepatocyte growth factor receptor; test: PROTAC activity at CRBN/c-MET in human MKN-45 cells assessed as induction of c-MET degradation at 100 nM preincubated with MLN4924 for 2 hrs followed by compound addition and measured after 24 hrs by Western blot analysis; assay type: cell-based
Target sequence in this assay (P08581 25-1390 limits assumed): as the sequence (P08581 25-1390 limits assumed) above
Target sequence in this assay (Q96SW2 whole entry partner): as the sequence (Q96SW2 whole entry partner) above

[26] = target: T1, Protein cereblon/Hepatocyte growth factor receptor; test: PROTAC activity at CRBN/c-MET in human MKN-45 cells assessed as induction of c-MET degradation at 100 nM incubated for 2 to 16 hrs by Western blot analysis; assay type: cell-based; settings: time 2-16 hrs
Target sequence in this assay (P08581 25-1390 limits assumed): as the sequence (P08581 25-1390 limits assumed) above
Target sequence in this assay (Q96SW2 whole entry partner): as the sequence (Q96SW2 whole entry partner) above

[27] = Toxicity in BALB/c nude mouse xenografted with human MKN-45 cells assessed as effect on heart morphology at 10 to 40 mg/kg, po administered once daily for 21 days by H and E staining based analysis; assay type: organism-based; settings: in vivo, 504 h, dose 10-40 mg/kg, time 21 day
[28] = target: T1, Protein cereblon/Hepatocyte growth factor receptor; test: PROTAC activity at CRBN/c-MET in human PC-9 cells assessed as induction of c-MET degradation at 3.125 to 50 nM incubated for 24 hrs by Western blot analysis; assay type: cell-based; settings: dose 3.125-50 nM
Target sequence in this assay (P08581 25-1390 limits assumed): as the sequence (P08581 25-1390 limits assumed) above
Target sequence in this assay (Q96SW2 whole entry partner): as the sequence (Q96SW2 whole entry partner) above

[29] = system: MKN-45; test: Antitumor activity against human MKN-45 cells xenografted in BALB/c nude mouse assessed as reduction in tumor growth administered orally as once daily dose for 21 days; assay type: functional; settings: dose 10-40 mg/kg, route po, time 21.0 day
[30] = target: T1, Protein cereblon/Hepatocyte growth factor receptor; test: PROTAC activity at CRBN/c-MET in human Hs746T cells assessed as induction of c-MET degradation at 12.5 to 200 nM incubated for 24 hrs by Western blot analysis; assay type: cell-based; settings: dose 12.5-200 nM
Target sequence in this assay (P08581 25-1390 limits assumed): as the sequence (P08581 25-1390 limits assumed) above
Target sequence in this assay (Q96SW2 whole entry partner): as the sequence (Q96SW2 whole entry partner) above

[31] = target: T1, Protein cereblon/Hepatocyte growth factor receptor; test: PROTAC activity at CRBN/c-MET in human MKN-45 cells assessed as induction of c-MET degradation at 100 nM preincubated with pomalidomide for 2 hrs followed by compound addition and measured after 24 hrs by Western blot analysis; assay type: cell-based
[32] = system: MKN-45; test: Upregulation of PDCD4 protein level in human MKN-45 cells at 100 nM incubated for 24 hrs by MS-based quantitative proteomics analysis; assay type: functional, cell-based
[33] = Toxicity in BALB/c nude mouse xenografted with human MKN-45 cells assessed as body weight loss at 10 to 40 mg/kg, po administered once daily for 21 days; assay type: organism-based; settings: in vivo, 504 h, dose 10-40 mg/kg, time 21 day
[34] = Toxicity in BALB/c nude mouse xenografted with human MKN-45 cells assessed as effect on lung morphology at 10 to 40 mg/kg, po administered once daily for 21 days by H and E staining based analysis; assay type: organism-based; settings: in vivo, 504 h, dose 10-40 mg/kg, time 21 day
[35] = Half-life in male Sprague-Dawley rat at 10 mg/kg, iv measured after 24 hrs by LC-MS/MS analysis; assay type: ADME, organism-based; settings: in vivo

For `O=C1CCC(N2C(=O)c3ccc(N4CCN(CC5CCN(C(=O)c6ccc(-c7cnc8ncc(Cc9ccc%10ncccc%10c9)n8n7)cc6F)CC5)CC4)cc3C2=O)C(=O)N1` (stereo not given), the inhibition [1] was “Active”, the Activity [2] was “Active” and the Activity [3] was “inactive”. For the same molecule, the Activity [4] was “Active; Little Effect Observed”, the Activity [5] was “Active” and the IC50 [6] was 4.37 nM. For the same molecule, the Tmax [7] was 4.8 min, the Activity [8] was “Active” and the Activity [9] was “Not active; Favorable Tissue Specificity Of Compound Observed”. The MRT inf [10] was 2.56 h, the half-life [11] was 4.13 h and the Activity [12] was “Active”. It also gave a Tmax [13] of 2 h, a DC50 [14] of 6.21 nM and an AUC(0-inf) [15] of 2520 ng·h/mL. The bioavailability [16] was 16.3%, the Activity [17] was “Non-toxic” and the Activity [18] was “Not active; Favorable Tissue Specificity Of Compound Observed”. For the same molecule, the Cmax [19] was 70.7 ng/mL, the Activity [20] was 100% and the Activity [21] was “inactive”. For the same molecule, the Activity [22] was “Non-toxic”, the Activity [23] was “Active; Significant Effect Observed” and the MRT inf [24] was 6.66 h. For the same molecule, the Activity [25] was “inactive”, the Activity [26] was “Active” and the Activity [27] was “Non-toxic”. For the same molecule, the Activity [28] was “Active”, the Activity [29] was “Dose-dependent-effect” and the Activity [30] was “Active”. For the same molecule, the Activity [31] was “inactive”, the Activity [32] was “Active” and the Activity [33] was “Non-toxic”. The Activity [34] was “Non-toxic” and the half-life [35] was 5.35 h.
